Experimental data as given in patent US20200397853A1, “TREATMENT OF A HEART DISEASE” (Yeda Research and Development Co. Ltd., priority 2018, published 2020).

What was measured:
Format in all cases: in vivo, mice
[1] = tested on: infarcted hearts; experiment: Multiplex cytokine ELISA of infarcted hearts
Experimental: Myocardial infarction in adult mice was performed as follows: mice were sedated with isoflurane (Abbott Laboratories) and following tracheal intubation, were artificially ventilated. Lateral thoracotomy at the third intercostal space was performed by blunt dissection of the intercostal muscles following skin incision. Following ligation of the left anterior descending coronary artery, 2 mg/animal/day of GA (batch #164F0105; 24992916) or PBS were injected according to the experimental protocol (described in the Results). Following treatment, thoracic wall incisions were sutured with 6.0 non-absorbable silk sutures, and the skin wound closed using a skin adhesive. Mice were then warmed for several minutes until recovery. For native protein extraction, hearts were minced using a mortar and pestle under liquid nitrogen, and the resulting powder was further homogenized using rotor—stator homogenizer with a native extraction buffer (0.5% triton in PBS with protease inhibitor cocktail). Resulting extracts were equilibrated for protein concentration, and subjected to mouse cytokine 16-plex ELISA (#110949MS, Quansys Biosciences, USA) according to manufacturer instructions. To broaden the understanding of the molecular effectors influenced by GA treatment, the cytokine milieu of the GA treated infarcted hearts was analyzed. For that, infarcted hearts were harvested at 24 h, 96 h and 14 days post MI. Native protein lysates were prepared and subjected to multiplex cytokine ELISA. At 24 hr post MI, both IL-6 and IL-10 levels were increased (FIG. 6A). […] Importantly, the levels of IL-6 as well as those of other pro-inflammatory cytokines in GA treated hearts were reduced 14 days post MI (FIG. 6C). These findings might underscore the importance of regulating a transient expression of pro-inflammatory cytokines occurring in a pro-regenerative scenario, similar to what was detected in the GA treated hearts. Another cytokine that was elevated after GA treatment was IL-4 (FIG. 6B). Both IL-10 and IL-4 are considered as anti-inflammatory cytokines that induce Th-2 differentiation, a cell population previously shown to be affected by GA (40-42). […] This chemokine was previously shown to induce IL-6 expression and to have beneficial effect on cardiac remodeling post MI^29. […] Taken together, the differential expression of cytokines in the GA treated infarcted heart might reveal the molecular mechanism that allows GA to modulate the immune response, supporting cardiac regeneration post MI.

[2] = tested on: infarcted hearts; experiment: FACS analysis of neutrophils and macrophages in infarcted hearts
Experimental: Myocardial infarction in adult mice was performed as follows: mice were sedated with isoflurane (Abbott Laboratories) and following tracheal intubation, were artificially ventilated. Lateral thoracotomy at the third intercostal space was performed by blunt dissection of the intercostal muscles following skin incision. Following ligation of the left anterior descending coronary artery, 2 mg/animal/day of GA (batch #164F0105; 24992916) or PBS were injected according to the experimental protocol (described in the Results). Following treatment, thoracic wall incisions were sutured with 6.0 non-absorbable silk sutures, and the skin wound closed using a skin adhesive. Mice were then warmed for several minutes until recovery. Single cell suspensions of hearts harvested at different time point post MI were generated immediately before analysis by flow cytometry, as previously described^21. Briefly, single hearts were minced and digested in collagenase II/Dispase solution in PBS with 1 mM CaCl2 (2 mg/ml collagenase II, 1.2 U/ml Dispase) for 3 rounds of 15 minutes at 37° C., followed by mechanical separation by pippetation. Digested samples were passed through a 40-μm filter, washed, and suspended in FACS buffer (PBS 0.5% BSA, 2 mM EDTA) for staining. Samples were stained with antibodies from Miltenyi biotec:CD45-Viogreen, CD11b-PE, Ly6G-Vioblue, Ly6C-FITC, F4/80-APC, CCR2-APC-Vio770, MHCII-PE-Vio770. 7-AAD was used as a viability marker. Staining and sample analysis were all performed by standard procedure on a LSR-II FACS machine. GA has an established influence on the immune response, especially the T-helper 2 (Th2) lymphocyte population^22-24. To investigate the molecular mechanisms of GA effects, the present inventors sought out to characterize the immune response of infarcted hearts after GA treatment. First, examining the changes in relevant immune populations. For that, infarcted hearts were analyzed by FACS using markers for neutrophils and macrophages. To follow the dynamics of the immune response after MI, injured hearts at 24 hr, 96 hr and 14 days post MI were harvested. […] The effect of GA diminishes after 96 hr, with the expected reduction in neutrophils. […] This trend was recently shown to promote cardiac regeneration^25, and therefore might explain GA regenerative effect.

[3] = tested on: mouse model of MI by LAD ligation; experiment: Heart section scar assessment (Masson-Trichrome) after MI
Experimental: (§1) Myocardial infarction in adult mice was performed as follows: mice were sedated with isoflurane (Abbott Laboratories) and following tracheal intubation, were artificially ventilated. Lateral thoracotomy at the third intercostal space was performed by blunt dissection of the intercostal muscles following skin incision. Following ligation of the left anterior descending coronary artery, 2 mg/animal/day of
(§2) GA (batch #164F0105; 24992916) or PBS were injected according to the experimental protocol (described in the Results). Following treatment, thoracic wall incisions were sutured with 6.0 non-absorbable silk sutures, and the skin wound closed using a skin adhesive. Mice were then warmed for several minutes until recovery.
Mouse heart tissues were fixed in 4% paraformaldehyde (PFA) and sectioned. For analysis of cardiac regeneration, following myocardial infarction procedure, paraffin sections were cut through the entire ventricle from apex to base into serial sections with intervals of 0.3 mm. Paraffin sections were cut frontally to include base to apex in each section. […] Scar size was quantified in the section containing the papillary muscle region using ImageJ software based on Masson's trichrome staining. Scar size was calculated as scar size relative to total section size.

[4] = tested on: mouse model of MI by LAD ligation; experiment: Echocardiography of heart function after myocardial infarction (LAD ligation)
Experimental: as §1, §2
Heart function was evaluated by transthoracic echocardiography performed on sedated mice (isoflurane, Abbott Laboratories) using a Vevo 3100 VisualSonics device.
Mice were divided to the following experimental groups: […]
4. Long GA treatment—performing MI followed by GA (2 mg/animal/day) given i.p. from day 0 up to day 14 or until first animal dies. N=5.
Echo measurements were performed at baseline (day 0), day 2, day 14 and day 35 post MI. Histology analysis was performed post mortem.
Short GA treatment—performing MI followed by GA (2 mg/animal/day) administered i.p. from day 0 up to day 14. N=10. […]
In the clinic, MI patients currently reach medical care in a matter of several hours. To find out the relevance and efficacy of delayed administration of GA, the present inventors created MI by LAD ligation and treated animals at the day of injury, 24 or 48 hours post MI.

[5] = tested on: Stat3; experiment: Western-blot analysis of pStat3 in hearts post MI; settings: 4 days after injury (FIG. 7)
Experimental: as §1, §2
Western blotting was performed with the SDS-PAGE Electrophoresis System. Sample extracts were prepared and transferred to PVDF membranes. The following primary antibodies were used: anti-Gapdh (Sigma, PLA0125, 1:3000), anti-pStat3 (1:1000) Horseradish peroxidase anti-mouse, anti-rabbit or anti-goat (Sigma-Aldrich, 1:2000) were used as a secondary antibody.

In the case of glatiramer acetate [GA], the IL-6 level ([1]; 24 hr post MI (FIG. 6A)) is reported as “increased”, the IL-10 level ([1]; 24 hr post MI (FIG. 6A)) is reported as “increased” and the “levels of Monocyte Chemoattractant Protein-1 (MCP-1)” value ([1]; 96 hr post MI (FIG. 6B)) is reported as “significant enhancement”. For the same substance, the IL-6 level ([1]; 14 days post MI (FIG. 6C)) was “reduced”, the “levels of other pro-inflammatory cytokines” value ([1]; 14 days post MI (FIG. 6C)) was “reduced” and the IL-4 level ([1]; FIG. 6B) was “elevated”. The “fraction of neutrophils in the infarcted hearts” value ([2]; 24 h post MI, vs PBS (FIGS. 5A, B)) was “decreased”, the “macrophage fraction of immune cells” value ([2]; 24 hr post MI, vs PBS (FIGS. 5C, D)) was “increase” and the “effect on macrophage fraction” value ([2]; after 96 hr post MI) was “diminished”. The effect on neutrophils ([2]; after 96 hr post MI) was “diminishes”, the “cardiac scarring (Masson-Trichrome stained area relative to total area)” value ([3]; 35 days after MI, larger group, vs PBS (FIG. 2C)) was “improved significantly” and the “scar area of the 3 representative treated mice” value ([3]; 35 d post MI, Masson-Trichrome, vs PBS (FIG. 3A)) was “smaller scar area”. The “fractional shortening (FS), reduction from baseline” value ([4]; 35 d after MI, GA i.p. 14 d vs PBS (FIG. 1C)) was “smaller reduction”, the “cardiac function (EF and FS)” value ([4]; 35 days after MI, larger group, all animals treated by the protocol, vs PBS (FIGS. 2A, B)) was “improved significantly” and the “EF of the 3 representative treated mice” value ([4]; 35 d post MI, vs PBS (FIG. 3B)) was “improved EF”. The “Ejection Fraction (EF)” value ([4]; 35 d post injury, GA 2 mg/animal/day i.p. day 0 to 14, vs PBS (FIG. 1A)) was “clear beneficial effect”, the “cardiac function (EF, FS), treatment delayed 24 hours” value ([4]; treatment started 24 hours post MI, similar levels to treatment at the day of injury (FIGS. 4A-B)) was “improved cardiac function” and the “cardiac function (EF, FS), treatment delayed 48 hours” value ([4]; treatment started 48 hours post MI, similar levels to treatment at the day of injury (FIGS. 4A-B)) was “improved cardiac function”. For the same substance, the “levels of phosphorylated Stat3 (pStat3)” value [5] was “increased levels” and the “levels of phosphorylated Stat3 (pStat3)” value ([5]; listed as Cop) was “upregulation”.
